In US20160136194A1, “Pharmaceutical composition comprising a proton pump inhibitor and a prebiotic for the treatment of ulcerous lesions of the stomach and duodenum” (priority 2010, published 2016):

What was measured:
[1] = tested on: Helicobacter pylori; experiment: Urease test of gastric mucosa biopsy material; type: in vivo; conditions: share of patients positive, n = 10
Source text: (§1) There were enrolled 80 patients aged 19 to 57 years in the study: males and females with newly diagnosed gastric and duodenal ulcer, five from them with Zollinger-Ellison syndrome.
(§2) All patients were divided into 8 groups of 10 patients each, 4 groups of them were experimental: the declared dosage forms on the base of PPI and prebiotic were orally administered by them. For the first group active components of the composition were omeprazole and a lactulose; for the second group—pantoprazole and prebiotic lactitol; for the third group—lansoprazole, and prebiotic inulin; for the fourth group—rabeprazole and prebiotic amino acids (glutamic acid). 5th, 6th, 7th and 8th groups were control: patients of the 5th group received monotherapy by omeprazole; patients of the 6th group—by lansoprazole; patients of the 7th group—esomeprazole and patients of the 8th group of patients received standard therapy for the elimination of H. pylori: omeprazole, metronidazole and clarithromycin.
(§3) All patients received treatment according to the similar regimen: took the composition of PPI and prebiotic 1-2 times a day within 14 days.
2. Urease test. The biopsy material of the gastric mucosa was examinated for the presence of the urease—enzyme specific for Helicobacter pylori (Helicobacter Test INFAI).

[2] = tested on: Helicobacter pylori; experiment: Microbiological method: isolation of H. pylori culture from patient material, before and after therapy; type: in vivo; conditions: share of patients positive, n = 10
Source text: as §1, §2, §3
4. Microbiological method. Inoculation and isolation of pure culture of H. pylori from the biopsy material of the mucosa, obtained by gastroduodenoscopy.
Before the beginning and after the termination of the eradication therapy all 80 patients have been enrolled in the clinical trials were microbiologically tested on the presence of H. pylori, lactobacilli and bifidobacteria in the stomach and duodenum content.
The material was analyzed in microbiological laboratory of the Pasteur Institute of Epidemiology and Microbiology, St. Petersburg.
Strains of H. pylori were identified on the base of analysis of colony and cell morphology, cultural, biochemical and tinctorial properties of microorganisms. Lactobacillus strains isolated in the material from the intestine additionally were identified on catalase and oxidase activity.
The bacterium quantity in the material was estimated by calculation of colonies on dense nutrient mediums that were represented in the form of Ig CFU/ml.

[3] = tested on: Helicobacter pylori; experiment: Cytological test of the biopsy material of the gastric mucosa; type: in vivo; conditions: share of patients positive, n = 10
Source text: as §1, §2, §3
1. Cytological and histological examination of imprint smear of the biopsy material of the gastric antrum mucosa, obtained by gastroscopy. Thus, microcolonies of Helicobacter pylori are detected using special stain.

[4] = tested on: gastric acid secretion; conditions: compared with PPI of the first generation; cited from earlier work
[5] = after therapy (1-2 times a day, 14 days)

Row | SMILES | Urease test ([1]; after therapy (14 days)) | Urease test ([1]; before therapy) | Isolation of Helicobacter pylori from stomach content [2, 5] | Isolation of Helicobacter pylori from stomach content ([2]; before therapy, peptic ulcer) | Cytological test of the biopsy material of the gastric mucosa ([3]; after therapy (14 days)) | Cytological test of the biopsy material of the gastric mucosa ([3]; before therapy) | Kept pH value <4 in stomach, above PPI of the first generation [4]
1 | COc1ccc2[nH]c([S+]([O-])Cc3ncc(C)c(OC)c3C)nc2c1 (stereo not shown) [5th group, omeprazole] | 30% | 70% | 50% | 100% | 40% | 80% | –
2 | COc1ccc2nc([S@@+]([O-])Cc3ncc(C)c(OC)c3C)[nH]c2c1 [7th group, esomeprazole] | 40% | 60% | 50% | 100% | 40% | 70% | 10-15%
3 | Cc1c(OCC(F)(F)F)ccnc1C[S+]([O-])c1nc2ccccc2[nH]1 (stereo not shown) [6th group, lansoprazole] | 60% | 70% | 60% | 100% | 40% | 60% | –
